# Peptide text beside a SMILES is read from it.
# Test system: Normal human skin-derived fibroblasts (CRL-1836)
# Assay: Microscopic observation of fibroblasts after 72 hours of culture (cell count, morphology)
# Type: cell-based
# Conditions: 1000 μg/ml peptide
# Experimental: Normal human skin-derived fibroblasts (CRL-1836; ATCC) were cultured in 60-mm dishes. More specifically, the cells were plated in dishes at a density of 2500 cells/cm^2, and cultured until subconfluent at 37° C. under 5% carbon dioxide gas and 95% air for 6 days. 3 ml of Dulbecco's Modified Eagle Medium (DMEM) supplemented with […] fetal bovine serum (FBS) was used in the culture. Then, the culture medium was changed to the same medium without FBS (namely, serum-free medium), and the culture was continued for 1 day. Next, the culture medium was changed to 3 ml of serum-free medium supplemented with 1000 μg/ml of the LEHA peptide prepared in Example 1, and the cells were cultured for 72 hours. Meanwhile, the culture in which the medium was changed to 3 ml of serum-free culture medium without the LEHA peptide was used as a control.
# After 72 hours of culture, the cells in the dishes containing the LEHA peptide and the control dishes were observed under a microscope.
smiles,measurement,value
"CC(C)C[C@H](N)C(=O)N[C@@H](CCC(=O)O)C(=O)N[C@@H](Cc1c[nH]cn1)C(=O)N[C@@H](C)C(=O)O [LEHA peptide, Leu-Glu-His-Ala] (H-LEHA-OH)",cell counts versus control dishes,not significantly different
same,morphological abnormality of the cells,no morphological abnormality was observed

# — patent publication US20090054346A1, “ELASTIN PRODUCTION-ENHANCING AGENTS” (Rohto Pharmaceutical Co., Ltd., priority 2006, published 2009)
